# Results as given in patent US20050107447A1, “Novel lysophosphatidic acid receptor agonists and antagonists” (priority 2003, published 2005).
# “And” between values parts separate entries of the source, which are not always exact repeats. Equal values may be shown once. “Also recorded” adds a separate entry of the source.
# Experiments:
# LPA1 [1] = target: T1, LPA1 (Mus musculus, UniProt P61793); test: GTP[γ35S] binding, LPA1 transfected HEK293T (or RH7777) cell membranes; format: biochemical; parameters: expressed in transfected cells; host or cells: HEK293T (transient, with G protein plasmids); some results from RH7777 rat hepatoma membranes transfected with LPA1 DNA only
# Experimental: (§1) The appropriate receptor plasmid DNA (encoding mouse LPA1, human LPA2 or human LPA3) was mixed with equal amounts of expression plasmids (pcDNA3) encoding a mutated (C351F) rat Gi2a, cow β1, and γ2 proteins and these DNAs were used to transfect monolayers of HEK293T cells (where ‘T’ indicates expression of the SV-40 virus large T antigen) using the calcium phosphate precipitate method. After about 60 hours, cells were harvested, membranes were prepared, aliquoted and stored at −70° C. until use.
# (§2) The GTP[35 γS] assay was performed as described by us previously. Membranes containing 5 ug of protein were incubated in 0.1 ml GTP-binding buffer (in mM: HEPES 50, NaCl 100, MgCl2 10, pH7.5) containing […], […], 0.1 nM GTP[35 γS] (1200 Ci/mmol), and indicated lipid(s) for 30 minutes at 30° C. Samples were analyzed for membrane-bound radionuclide using a Brandel Cell Harvester (Gaithersburg, Md.).
# (§3) The X-intercept of the linear transformation is equal to the inverse log of the κ1.
# (§4) Membranes prepared from these cells are used to measure GTPγ[^35S] binding as a function of test compound concentration. The resulting dose-response curves provide relative potency (EC50) and efficacy, (Emax) for the test compounds.
# LPA3 [2] = target: T2, LPA3 (Homo sapiens, UniProt Q9UBY5); test: GTP[γ35S] binding, LPA3 transfected HEK293T cell membranes; format: biochemical; parameters: expressed in transfected cells; host or cells: HEK293T (transient, calcium phosphate)
# T2 sequence (Q9UBY5 1-353): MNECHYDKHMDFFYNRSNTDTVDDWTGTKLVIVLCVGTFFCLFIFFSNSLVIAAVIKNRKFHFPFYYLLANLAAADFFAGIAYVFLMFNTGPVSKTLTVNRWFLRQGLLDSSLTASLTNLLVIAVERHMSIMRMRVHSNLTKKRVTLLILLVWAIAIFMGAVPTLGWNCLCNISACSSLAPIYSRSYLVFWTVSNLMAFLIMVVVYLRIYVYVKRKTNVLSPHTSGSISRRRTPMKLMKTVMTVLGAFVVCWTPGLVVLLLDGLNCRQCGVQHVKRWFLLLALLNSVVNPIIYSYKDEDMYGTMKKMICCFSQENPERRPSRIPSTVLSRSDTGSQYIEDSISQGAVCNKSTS
# Experimental: as §1, §2, §3, §4
# LPA2 [3] = target: T3, LPA2 (Homo sapiens, UniProt Q9HBW0); test: GTP[γ35S] binding, LPA2 transfected HEK293T cell membranes; format: biochemical; parameters: expressed in transfected cells; host or cells: HEK293T (transient, calcium phosphate)
# Experimental: as §1, §2, §3, §4
# LPP3 (PAP2b) phosphatase = target: T4, LPP3 (PAP2b) phosphatase (Homo sapiens, UniProt O14495); test: LPP inhibition, competition with 50 nM [32P]LPA; format: biochemical; conditions: for Rank order potency of LPP inhibition: LPP3 vs LPP1 vs LPP2
# T4 sequence (O14495 1-311): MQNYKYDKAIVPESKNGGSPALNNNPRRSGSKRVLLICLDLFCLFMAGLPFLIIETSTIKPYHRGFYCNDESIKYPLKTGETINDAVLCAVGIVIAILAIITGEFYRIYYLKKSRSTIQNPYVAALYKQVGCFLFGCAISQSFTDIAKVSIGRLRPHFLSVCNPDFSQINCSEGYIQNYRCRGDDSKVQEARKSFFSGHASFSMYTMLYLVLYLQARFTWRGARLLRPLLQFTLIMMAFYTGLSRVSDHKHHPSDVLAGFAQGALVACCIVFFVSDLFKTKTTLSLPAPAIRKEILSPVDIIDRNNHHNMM
# Experimental: (§5) NOHPP was also tested for activity at the three cloned LPPs. Although the phosphonate head group eliminates the possibility of NOHPP acting as a substrate, it is possible that the compound could be a competitive inhibitor.
# LPP1 (PAP2a) phosphatase = target: T5, LPP1 (PAP2a) phosphatase (Homo sapiens, UniProt O14494); test: LPP inhibition, competition with 50 nM [32P]LPA; format: biochemical; conditions: 0.1, 1.0 and 10.0 mM vs 50 nM [32P]LPA
# T5 sequence (O14494 1-284): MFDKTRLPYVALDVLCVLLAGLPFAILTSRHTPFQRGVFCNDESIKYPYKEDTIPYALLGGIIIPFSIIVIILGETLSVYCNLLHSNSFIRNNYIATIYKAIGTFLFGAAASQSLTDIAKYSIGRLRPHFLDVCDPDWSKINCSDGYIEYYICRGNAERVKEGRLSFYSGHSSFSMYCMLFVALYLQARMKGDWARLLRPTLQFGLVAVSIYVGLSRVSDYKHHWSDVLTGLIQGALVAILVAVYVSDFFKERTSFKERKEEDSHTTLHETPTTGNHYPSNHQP
# Experimental: as §5
# LPP2 (PAP2c) phosphatase = target: T6, LPP2 (PAP2c) phosphatase (Homo sapiens, UniProt O43688); test: LPP inhibition, competition with 50 nM [32P]LPA; format: biochemical; conditions: 0.1, 1.0 and 10.0 mM vs 50 nM [32P]LPA
# T6 sequence (O43688 1-288): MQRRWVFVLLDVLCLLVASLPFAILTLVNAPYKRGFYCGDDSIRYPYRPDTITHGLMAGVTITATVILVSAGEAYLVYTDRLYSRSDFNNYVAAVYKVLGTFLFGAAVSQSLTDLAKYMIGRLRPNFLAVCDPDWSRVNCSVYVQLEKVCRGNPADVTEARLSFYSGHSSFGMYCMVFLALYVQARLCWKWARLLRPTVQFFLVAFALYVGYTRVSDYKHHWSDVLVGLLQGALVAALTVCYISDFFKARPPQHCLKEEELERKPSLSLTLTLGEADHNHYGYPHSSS
# Experimental: as §5
# LPA receptors = test: Whole cell assays of calcium mobilization or inhibition of cAMP accumulation (agonist activity); format: cell-based
# Experimental: (§6) Assays for cAMP accumulation were conducted on populations of 5×10^5 cells stimulated with […] in the presence of the phosphodiesterase inhibitor isomethylbutylxanthine (IBMX) for 15 minutes at 30° C. cAMP was measured by automated radioimmunoassay.
# A FLIPR™ (Molecular Devices, Inc.) was used to measure intracellular calcium in A431 and HEK293T cells. A431 cells were seeded (−50,000 cells/well) in 96-well clear bottom black microplates (Corning Costar Corp., Cambridge, Mass.) and left overnight in CO2 incubator at 37° C. HEK293T cells were treated likewise, but seeded onto poly D-lysine coated microplates (Becton Dickinson, Franklin Lakes, N.J.). A431 cells were dye-loaded with 4 μM Fluo-3 AM ester (Molecular Probes Inc., Eugene, Oreg.) in a loading buffer (1×HBSS buffer, pH 7.4, containing 20 mM HEPES, 0.1% BSA, and 2.5 mM probenecid) for 1 hour at 37° C. Cells were then washed four times with the loading buffer and exposed in the FLIPR™ to sets of compounds. HEK293T cells were loaded with 2 μM Fluo-4 AM ester (Molecular Probes Inc., Eugene, Oreg.) in the same loading buffer without probenecid for 30 minutes and washed four times before being exposed to compounds in the FLIPR™. […]
# (§7) The same activity was determined with human LPA1 using a recombinant baculovirus-infected insect Sf9 cell membrane preparation.
# [4] = test system: HEK293T cells (express LPA1 and LPA3, not LPA2); test: Block of LPA-induced rises in free intracellular calcium in HEK293T cells (FLIPR); format: cell-based; conditions: specificity control
# Description: as §3
# human LPA1 = target: T7, human LPA1 (Homo sapiens, UniProt Q92633); test: GTP[γ35S] binding, recombinant baculovirus-infected insect Sf9 cell membrane preparation; format: biochemical; conditions: Sf9 membranes
# T7 construct: expressed in transfected cells; host or cells: Sf9 insect cells, recombinant baculovirus
# Experimental: as §7
# [5] = test system: renal injury following ischemia-reperfusion (IR); test: Renal ischemia-reperfusion model; format: in vivo, mouse; conditions: for Plasma creatinine: 24 hrs of reperfusion, n=4
# Experimental: C57BL6 mice (20 gm, 8 wks of age) were used for all studies. The surgical protocol of renal IR has been previously described (Okusa et al., 1999. Am. J. Physiol. (Renal Physiol.) 277: F404-412; Okusa, et al., 2000 Am. J. Physiol. (Renal Physiol.) 279; F809-F818, and Okusa et al., 2001 Kidney Int. 59:2114-2125). For the injury protocol, bilateral flank incisions were made under anesthesia with a regimen that consists of ketamine (100 mg/kg, ip.), xylazine (10 mg/kg, ip.) and acepromazine (1 mg/kg, im.). Renal pedicles were exposed and cross-clamped for 27-32 min. Kidneys were examined for immediate reperfusion following clamp removal. Wounds were closed and mice were returned to cages. […] The mice were sacrificed and the kidneys harvested at 1, 4, 8, 24, 48 hrs, 5 and 7 days. […] Mice were sacrificed following 24 hrs of reperfusion and plasma was obtained for BUN and creatinine.
# LPA1 [6] = target: T1, LPA1; test: cAMP accumulation in RH7777 cells stably expressing LPA1; format: cell-based; parameters: expressed in transfected cells
# Experimental: as §6
# Rat hepatoma RH7777 cell monolayers were transfected with the mLPA1 plasmid DNA using the calcium phosphate precipitate method and clonal populations expressing the neomycin phosphotransferase gene were selected by addition of geneticin (G418) to the culture media. The RH7777 cells were grown in monolayers at 37° C. in a 5% CO02/95% air atmosphere in growth media consisting of: 90% MEM, 10% fetal bovine serum, 2 mM glutamine and 1 mM sodium pyruvate.
# (§8) wls-b8L and the other phosphonates were also tested also for activity in three whole cell assays. […] Finally, the activity of wls-b8L in activating a chloride conductance in Xenopus laevis ooctyes was measured.
# human platelets = test: Aggregation of human platelets; format: cell-based; conditions: concentrations up to 10 micromolar
# LPA3 [7] = target: T2, LPA3; test: Chloride conductance in Xenopus oocytes injected with human LPA3 mRNA; format: cell-based; parameters: expressed in transfected cells; host or cells: Xenopus laevis oocytes injected with mRNA; conditions: 10 μM
# Experimental: as §8
# [8] = test system: endogenous LPA receptor of Xenopus laevis oocytes; test: Chloride conductance in Xenopus laevis oocytes, endogenous receptor; format: cell-based; conditions: uninjected oocytes
# Experimental: as §8
# MDA MB-231 cells = test: Calcium mobilization through endogenous LPA receptors in MDA MB-231 cells; format: cell-based; conditions: 1 μM
# Experimental: as §8
# LPA2 [9] = target: T3, LPA2; test: Chloride conductance in Xenopus oocytes injected with human LPA2 mRNA; format: cell-based; parameters: expressed in transfected cells; host or cells: Xenopus laevis oocytes injected with mRNA; conditions: 10 μM
# Experimental: as §8
# T3 sequence (Q9HBW0 whole entry): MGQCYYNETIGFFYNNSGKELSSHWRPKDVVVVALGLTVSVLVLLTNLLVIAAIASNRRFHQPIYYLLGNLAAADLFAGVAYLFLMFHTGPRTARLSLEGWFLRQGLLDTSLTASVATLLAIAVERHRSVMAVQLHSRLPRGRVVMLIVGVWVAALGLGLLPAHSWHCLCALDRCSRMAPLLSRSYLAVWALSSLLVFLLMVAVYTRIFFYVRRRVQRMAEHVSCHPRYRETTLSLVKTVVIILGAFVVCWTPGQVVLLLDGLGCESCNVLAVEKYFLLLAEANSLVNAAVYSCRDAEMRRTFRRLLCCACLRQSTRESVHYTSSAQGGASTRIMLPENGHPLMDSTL
# T1 sequence (P61793 whole entry): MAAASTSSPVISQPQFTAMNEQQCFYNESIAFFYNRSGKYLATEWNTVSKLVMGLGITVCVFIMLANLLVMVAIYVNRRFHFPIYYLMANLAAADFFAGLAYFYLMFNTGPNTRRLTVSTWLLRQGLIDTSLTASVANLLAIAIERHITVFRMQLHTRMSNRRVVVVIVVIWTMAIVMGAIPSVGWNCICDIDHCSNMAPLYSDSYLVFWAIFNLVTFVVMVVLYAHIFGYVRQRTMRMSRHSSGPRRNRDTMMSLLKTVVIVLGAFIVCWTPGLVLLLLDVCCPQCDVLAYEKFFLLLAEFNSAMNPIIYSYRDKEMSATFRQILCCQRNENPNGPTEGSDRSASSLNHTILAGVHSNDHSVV
# T7 sequence (Q92633 whole entry): as the sequence (P61793 whole entry) above, with A4I, S8I, Q22P, Y40H, V61I, D193E, H194N, V269I, N331S, N335T counted along it
compound,measurement,setting,value
"CCCCCCCC/C=C\CCCCCCCC(=O)NCCC(O)P(=O)(O)O (racemic) [NOHPP, (9Z)-N-(rac-3-hydroxy-3-phosphonopropyl)Octadec-9-enamide]",Agonist activity/efficacy at LPA1,LPA1 [1]; compared to LPA,as efficacious as; also recorded: fully efficacious
same,Potency at LPA1 relative to LPA,LPA1 [1]; vs 1-oleoyl LPA,somewhat less potent; also recorded: about one log order less potent
same,Agonist activity/efficacy at LPA3,LPA3 [2]; compared to LPA,far less efficacious; also recorded: little activity
same,Potency at LPA3 relative to LPA,LPA3 [2]; vs 1-oleoyl LPA,distinctly less potent; also recorded: greater than two log orders less potent
same,Agonist activity/efficacy at LPA2,LPA2 [3]; compared to LPA,as efficacious as; also recorded: fully efficacious
same,Potency at LPA2 relative to LPA,LPA2 [3]; vs 1-oleoyl LPA,somewhat less potent; also recorded: about one log order less potent
same,Inhibition of LPP3,"LPP3 (PAP2b) phosphatase; 0.1, 1.0 and 10.0 mM vs 50 nM [32P]LPA",inhibited
same,Rank order potency of LPP inhibition,LPP3 (PAP2b) phosphatase,LPP3>LPP1>>LPP2
same,Rank order potency of LPP inhibition,LPP3 (PAP2b) phosphatase; listed as VPC12031,markedly better at the PAP2b (LPP3) than PAP2a (LPP1)
same,Inhibition of LPP1,LPP1 (PAP2a) phosphatase,to a lesser extent
same,Inhibition of LPP2,LPP2 (PAP2c) phosphatase,inactive
CCCCCCCC/C=C\CCCCCCCC(=O)N[C@H](COP(=O)(O)O)Cc1ccc(OCc2ccccc2)cc1 [VPC12249],Agonist activity in whole cell assays,LPA receptors,completely devoid of agonist activity
same,Antagonism of LPA-induced GTP[γ35S] binding at LPA3,LPA3 [2],surmountable antagonist
same,Ki,"LPA3 [2]; Schild regression, block of LPA-induced GTP[γ35S] binding",0.428 µM and ~0.425 µM
same,Antagonism of ATP-evoked calcium transients,[4],lack of antagonism
same,Antagonism of LPA-induced GTP[γ35S] binding at LPA2,LPA2 [3],lack of antagonist activity
same,Antagonist activity at human LPA1,human LPA1,same activity
same,Plasma creatinine,[5]; 0.01 mg/kg/2 hrs,1.06±0.25
same,"H and E sections, tissue preservation",[5]; 1 mg/kg/2 hr,marked degree of tissue preservation
same,Plasma creatinine,[5]; 1.0 mg/kg/2 hrs,0.31±0.4
same,Block of LPA1-mediated inhibition of forskolin-induced cAMP increase,LPA1 [6]; RH7777 cells stably expressing LPA1,inhibited
"CCCCCCCC/C=C\CCCCCCCC(=O)NCCCP(=O)(O)O [wls-b8L, (9Z)-N-(3-phosphonopropyl)Octadec-9-enamide]",Aggregation of human platelets,human platelets,does not elicit aggregation
same,"Receptor-type selectivity of agonist activity (LPA1 vs LPA2, LPA3)",LPA1 [1]; GTPγ[35S] binding,more potent and efficacious at LPA1 than at either LPA2 or LPA3; also recorded: distinctly more selective
same,Activation of chloride conductance,LPA3 [7],very modest response
same,Activation of chloride conductance,[8],does not evoke this response
same,Calcium mobilization,MDA MB-231 cells,inactive
same,Inhibition of cAMP accumulation (agonist efficacy),LPA1 [6]; concentration of 1 μM,fully efficacious
same,Activation of chloride conductance,LPA2 [9],very modest response
